Measured values taken from ChEMBL document CHEMBL4665689, “Picrorhizones A-H, Polyprenylated Benzoylphloroglucinols from the Stem Bark of Garcinia picrorhiza” (J Nat Prod, 2020).

How the values were obtained:
Assay type in all cases: functional, cell-based
[1] = test system: HT-29; experiment: Cytotoxicity activity against human HT-29 cells assessed as reduction in cell viability after 72 hrs by MTT assay; conditions: HT-29, 72 h
[2] = test system: KB; experiment: Cytotoxicity activity against human KB cells assessed as reduction in cell viability after 72 hrs by MTT assay
[3] = test system: HeLa S3; experiment: Cytotoxicity activity against human HeLa S3 cells assessed as reduction in cell viability after 72 hrs by MTT assay; conditions: HeLa S3, 72 h
[4] = test system: MCF7; experiment: Cytotoxicity activity against human MCF7 cells assessed as reduction in cell viability after 72 hrs by MTT assay; conditions: MCF7, 72 h
[5] = test system: HepG2; experiment: Cytotoxicity activity against human HepG2 cells assessed as reduction in cell viability after 72 hrs by MTT assay; conditions: HepG2, 72 h

## CC(C)=CC[C@@H]1C[C@]23C[C@@H](CC=C(C)C)C(C)(C)[C@](CC=C(C)C)(C(=O)C(C(=O)c4ccc(O)c(O)c4)=C2OC1(C)C)C3=O
[1]
  IC50: > 10 µM
[2]
  IC50: 5.3 µM
[3]
  IC50: > 10 µM
[4]
  IC50: 7.2 µM
[5]
  IC50: > 10 µM

## C=C(C)[C@H]1C[C@@H](C[C@@]23C[C@@H](/C=C/C(C)C)C(C)(C)[C@@](CC=C(C)C)(C2=O)c2oc4cc(O)c(O)cc4c(=O)c2C3=O)C1(C)C
[1]
  IC50: > 10 µM
[2]
  IC50: 5.2 µM
[3]
  IC50: 6.2 µM
[4]
  IC50: > 10 µM
[5]
  IC50: > 10 µM

## C=C(C)[C@H]1C[C@@H](C[C@]23C[C@@H](/C=C/C(C)C)C(C)(C)[C@](C/C=C(\C)CO)(C(=O)C(C(=O)c4ccc(O)c(O)c4)=C2O)C3=O)C1(C)C
[2]
  IC50: > 10 µM
[3]
  IC50: 8 µM

## C=C(C)[C@H]1C[C@@H](C[C@]23C[C@@H](/C=C/C(C)C)C(C)(C)[C@](CC=C(C)C)(C(=O)C(C(=O)c4ccc(O)c(O)c4)=C2O)C3=O)C1(C)C
[1]
  IC50: > 10 µM
[2]
  IC50: 7 µM
[3]
  IC50: 7.2 µM
[4]
  IC50: > 10 µM
[5]
  IC50: > 10 µM

## CC(=O)[C@H]1C[C@@H](C[C@]23C[C@@H](/C=C/C(C)C)C(C)(C)[C@](CC=C(C)C)(C(=O)C(C(=O)c4ccc(O)c(O)c4)=C2O)C3=O)C1(C)C
[1]
  IC50: > 10 µM
[2]
  IC50: 7.4 µM
[3]
  IC50: > 10 µM
[4]
  IC50: > 10 µM
[5]
  IC50: > 10 µM

## C=C(C)[C@H]1C[C@@H](C[C@]23C[C@@H](/C=C/C(C)C)C(C)(C)[C@@]4(C[C@@H](C(C)(C)O)OC4=C(C(=O)c4ccc(O)c(O)c4)C2=O)C3=O)C1(C)C
[1]
  IC50: > 10 µM
[2]
  IC50: 5.9 µM
[3]
  IC50: 6 µM
[4]
  IC50: 9.3 µM
[5]
  IC50: 9.4 µM

## C=C(C)[C@H]1C[C@@H](C[C@]23C[C@@H](/C=C/C(C)C)C(C)(C)[C@](CC=C(C)C)(C(=O)C(C(=O)c4ccccc4)=C2O)C3=O)C1(C)C
[1]
  IC50: > 10 µM
[2]
  IC50: 9.9 µM
[3]
  IC50: > 10 µM
[4]
  IC50: > 10 µM
[5]
  IC50: > 10 µM

## COc1cccc2c1C(=O)c1c(O)c3c(c(O)c1C2=O)C[C@@](O)(C(=O)CO)C[C@@H]3O[C@H]1C[C@H](N)[C@H](O)[C@H](C)O1 [DOXORUBICIN]
[1]
  IC50: 0.59 µM
[2]
  IC50: 0.02 µM
[3]
  IC50: 0.15 µM
[5]
  IC50: 1 µM
